Results from the supplement of paper PMC10307832.

Legend:
Assay in all cases: relative viability (nuclei count vs DMSO), 5 days (fraction); higher = more cells survive
[1] = compound: COc1cc2nc(N3CCCN(C)CC3)nc(NC3CCN(Cc4ccccc4)CC3)c2cc1OC + CC(C)C[C@H](NC(=O)[C@H](Cc1ccccc1)NC(=O)c1cnccn1)B(O)O [Bortezomib] (partner 0.002 µM)
Procedure, shortened: (§1)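 Lung cancer cell lines were seeded in 1536-well plates and dosed by pin tool the next day, with either a single drug or a fixed anchor-drug dose combined with five library-drug doses (not always all listed) spaced in √10 steps. Five days later, one step fixed the cells and stained their nuclei (final 0.05% Triton X-100, 1% formaldehyde, 1 ug/ml Hoechst), and nuclei were counted on 4× images. Relative viability is the nuclei count in treated wells divided by the count in vehicle wells, and each value is the median of duplicate plates.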

[2] = compound: COc1cc2nc(N3CCCN(C)CC3)nc(NC3CCN(Cc4ccccc4)CC3)c2cc1OC + C[C@]1(O)C[C@@H](c2nc(-c3ccc4ccc(-c5ccccc5)nc4c3)c3c(N)nccn32)C1 [Linsitinib] (partner 1 µM)
Procedure, shortened: as §1

[3] = compound: Cc1cc([C@@H](C)Nc2ccccc2C(=O)O)c2nc(N3CCOCC3)cc(=O)n2c1 [AZD6482] + Cc1nc(Nc2ncc(C(=O)Nc3c(C)cccc3Cl)s2)cc(N2CCN(CCO)CC2)n1 [Dasatinib] (partner 0.075 µM)
Procedure, shortened: as §1

[4] = compound: Cc1cc([C@@H](C)Nc2ccccc2C(=O)O)c2nc(N3CCOCC3)cc(=O)n2c1 [AZD6482] + CC(=O)c1c(C)c2cnc(Nc3ccc(N4CCNCC4)cn3)nc2n(C2CCCC2)c1=O [Palbociclib] (partner 0.5 µM)
Procedure, shortened: as §1

Cell Line | relative viability ([1]; first compound 0.2 µM) | relative viability ([1]; first compound 0.6325 µM) | relative viability ([1]; first compound 2 µM) | relative viability ([1]; first compound 6.325 µM) | relative viability ([2]; first compound 0.2 µM) | relative viability ([2]; first compound 0.6325 µM) | relative viability ([2]; first compound 2 µM) | relative viability ([2]; first compound 6.325 µM) | relative viability ([3]; first compound 0.08 µM) | relative viability ([3]; first compound 0.253 µM) | relative viability ([3]; first compound 0.8 µM) | relative viability ([3]; first compound 2.53 µM) | relative viability ([3]; first compound 8 µM) | relative viability ([4]; first compound 0.08 µM) | relative viability ([4]; first compound 0.253 µM) | relative viability ([4]; first compound 0.8 µM) | relative viability ([4]; first compound 2.53 µM) | relative viability ([4]; first compound 8 µM)
201T | 1.13 | 1.14 | 1.17 | 1.07 | 1.06 | 1.03 | 1.04 | 1 | 0.645 | 0.542 | 0.627 | 0.416 | 0.395 | 0.351 | 0.354 | 0.309 | 0.326 | 0.347
A549 | – | – | – | – | 0.648 | 0.549 | 0.713 | 0.684 | – | – | – | – | – | – | – | – | – | –
A-427 | 0.962 | 0.869 | 1.09 | 0.957 | 1.13 | 1.06 | 1.13 | 1.18 | 0.717 | 0.615 | 0.715 | – | 0.754 | 0.462 | 0.528 | 0.495 | 0.502 | 0.553
ABC-1 | 0.26 | 0.339 | 0.264 | 0.328 | 0.815 | 0.66 | 0.871 | 0.936 | 0.5 | 0.591 | 0.699 | 0.496 | 0.53 | 0.603 | 0.79 | 0.664 | 0.662 | 0.544
BEN | 0.781 | 0.952 | 1.09 | 0.883 | 0.914 | 0.949 | 1.04 | 1.01 | 0.358 | 0.269 | 0.39 | 0.216 | 0.339 | 0.442 | 0.452 | 0.446 | 0.449 | 0.466
CAL-12T | 0.996 | 1.32 | 1.05 | 0.833 | 0.745 | 0.829 | 0.944 | 0.726 | 0.403 | 0.393 | 0.332 | 0.21 | 0.171 | 0.416 | 0.314 | 0.343 | 0.518 | 0.286
COR-L23 | 0.956 | 0.884 | 1.11 | 0.933 | 0.966 | 1.02 | 1.05 | 1 | 0.338 | 0.374 | 0.47 | 0.292 | 0.326 | 0.223 | 0.28 | 0.305 | 0.338 | 0.224
COR-L 105 | 0.787 | 0.835 | 0.591 | 0.404 | 1.09 | 0.888 | 0.833 | 0.628 | 0.287 | 0.318 | 0.325 | 0.262 | 0.273 | 0.419 | 0.434 | 0.434 | 0.492 | 0.376
Calu-6 | 0.976 | 0.942 | 1.03 | 0.948 | 0.881 | 0.903 | 1.02 | 0.962 | – | – | – | – | – | – | – | – | – | –
ChaGo-K-1 | 0.995 | 1.13 | 1.16 | 0.838 | – | – | – | – | 0.647 | 0.501 | 0.79 | 0.589 | 0.532 | 0.948 | 0.901 | 0.926 | 0.919 | 0.934
EBC-1 | 0.469 | 0.476 | 0.437 | 0.265 | 0.887 | 0.879 | 1.09 | 0.753 | – | – | – | – | – | – | – | – | – | –
EKVX | 1.09 | 0.993 | 1.18 | 0.963 | 0.986 | 0.922 | 1.07 | 0.891 | 0.465 | 0.507 | 0.504 | 0.304 | 0.3 | 0.283 | 0.325 | 0.342 | 0.279 | 0.298
EMC-BAC-2 | 1.09 | 1.12 | 1.11 | 1.09 | 0.799 | 0.815 | 0.903 | 0.787 | 0.253 | 0.327 | 0.275 | 0.257 | 0.271 | 0.494 | 0.491 | 0.518 | 0.46 | 0.429
EPLC-272H | 0.897 | 0.793 | 0.918 | 0.658 | 1.25 | 1.22 | 1.02 | 1.1 | 0.253 | 0.291 | 0.311 | 0.172 | 0.124 | 0.297 | 0.292 | 0.328 | 0.332 | 0.244
H3255 | 0.782 | 0.944 | 0.726 | 0.43 | 0.983 | 0.992 | 1.04 | 0.998 | 0.339 | 0.342 | 0.476 | 0.345 | 0.322 | 0.324 | 0.33 | 0.306 | 0.339 | 0.339
HARA | 1.03 | 1.07 | 1.28 | 1.11 | 0.798 | 0.889 | 1 | 0.948 | 0.268 | 0.302 | 0.232 | 0.188 | 0.157 | 0.182 | 0.199 | 0.368 | 0.247 | 0.171
HCC-15 | 1.03 | 1.02 | 1.12 | 0.881 | 0.895 | 0.903 | 0.95 | 0.734 | 0.566 | 0.545 | 0.594 | 0.385 | 0.598 | 0.652 | 0.631 | 0.77 | 0.676 | 0.633
HCC-44 | 0.935 | 0.85 | 0.991 | 0.909 | 0.688 | 0.549 | 0.786 | 0.695 | – | – | – | – | – | 0.858 | 0.988 | 1.04 | 1.05 | 1.26
HCC-78 | 0.511 | 0.434 | 0.535 | 0.504 | 0.427 | 0.416 | 0.482 | 0.348 | 0.298 | 0.207 | 0.254 | 0.192 | 0.199 | 0.402 | 0.449 | 0.4 | 0.378 | 0.427
HCC-366 | 1.02 | 1 | 1.03 | 0.927 | 0.68 | 0.642 | 0.694 | 0.586 | 0.659 | 0.564 | 0.733 | 0.271 | 0.482 | 0.334 | 0.367 | 0.385 | 0.35 | 0.229
